Results on eleven molecules are retold here after patent US4148786A, “Analgesic polypeptide” (American Home Products Corporation, priority 1978, dated 1979).

Several values for one entry are separate records, joined by “and”; a condition that tells them apart may be missing. Equal values may be shown once. Read-outs that look alike come from different tables or passages of the source. Where a SMILES comes first, the peptide text is derived from it. Bridges are numbered along the chain shown (N, C = ends). [ ]: non-standard residue; d: D form.

For data set [1], the system named is rats. To be noted: peripheral (i.v.); cited from earlier work.
The test system of data set [2] is male rats. The experiment in a line: rat-tail flick test of D'Amour and Smith. It counts as in vivo. To be noted: for Positive Responses / Total Possible Responses: all time periods. How it is done:
The holders were situated so that a high intensity light beam would shine on the tip of the rats tail. The light beam intensity was adjusted so that normal rats respond by removing their tails from the light stimulus within from 3 to 8 seconds. The average of three time readings for removal of a rats tail from the light beam, taken 20 minutes apart serves as a pre-drug control. The rats were selected for use based upon control readings that agreed within one second. The compounds of this invention were then administered intravenously and the test performed at 15, 30 and 60 minutes to determine the animals reaction time which was compared with the control average and tested for significance. The number of rats showing analgesia at each time period out of the total group for each dose administered is noted as a ratio and the number of positive responses observed is relative to the total number of challenges for each group of rats.
(Thermal pain tests record how soon the animal reacts.)

Data set [3] deals with male rats. The experiment in a line: rat-tail flick test of D'Amour and Smith. The data set is classed as in vivo.
The conditions of data set [4]: central administration; cited from earlier work.
Another data set has as its system opiate receptor. The experiment in a line: opiate receptor binding affinity (method of Chang et al.). To be noted: two assays. How it is done:
The opiate receptor binding affinity of the compound of Example 2 was determined following the method of Chang et al., Life Sciences, 18, 1473-82(1976).

Data set [5] deals with rats. Particulars: cited from earlier work; for analgesia: injection in the brain ventricle in rats.
The conditions of data set [6]: administered peripherally; cited from earlier work.
The subject of another data set is mice. Particulars: central administration; cited from earlier work.

Regarding H-Y[dM]GFP-NH2, the analgesic activity entry with rats [1] is given as “peripheral (i.v.) analgesic activity”.
With `CN[C@@H](Cc1ccc(O)cc1)C(=O)N[C@@H]1CSSC[C@H](C(N)=O)NC(=O)[C@H](Cc2ccccc2)NC(=O)CNC1=O` [Example 6, N-Methyl-L-tyrosyl-D-cysteinyl-glycyl-L-phenylalanyl-D-cysteinylamide cyclic (2-5) disulfide], the “No. Analgesic / Total No. Tested” value in the data set on male rats [2] (1 mg/kg iv, 15 minutes) is recorded as 6/6; with male rats [2] (1 mg/kg iv, 30 minutes), 5/6; with male rats [2] (1 mg/kg iv, 60 minutes), 3/6; in the data set on male rats [2] (5 mg/kg iv, 15 minutes), 6/6; in the data set with male rats [2] (5 mg/kg iv, 60 minutes), 3/3; in the data set on male rats [3] (5 mg/kg iv, 30 minutes) it was 4/4. In addition, the “Comments: respiratory depression” value with male rats [2] (5 mg/kg iv) is on record as 3/3 respiratory depression. For the same molecule, the “Positive Responses / Total Possible Responses” value in the data set on male rats [2] (5 mg/kg iv) is given as 13/13; with male rats [3] (1 mg/kg iv, all time periods) it was 14/18. Also, the “Comments: dead” value in the data set on male rats [3] (5 mg/kg iv) was determined as 3.
`N=C(N)NCCC[C@H](N)C(=O)N[C@@H](Cc1ccc(O)cc1)C(=O)N[C@@H]1CSSC[C@H](C(N)=O)NC(=O)[C@H](Cc2ccccc2)NC(=O)CNC1=O` [Example 5, L-Arginyl-L-tyrosyl-D-cysteinyl-glycyl-L-phenylalanyl-D-cysteinylamide cyclic (3-6) disulfide] (H-RY[dC]GF[dC]-NH2; disulfide 3-6): the “No. Analgesic / Total No. Tested” value is reported as 0/6 in the data set with male rats [2] (0.5 mg/kg iv, 60 minutes); 4/6 in the data set with male rats [2] (1 mg/kg iv, 15 minutes); 3/6 in the data set with male rats [2] (1 mg/kg iv, 30 minutes); 2/6 with male rats [2] (1 mg/kg iv, 60 minutes); 6/6 with male rats [2] (5 mg/kg iv, 15 minutes); 5/5 with male rats [2] (5 mg/kg iv, 60 minutes). In addition, the “No. Analgesic / Total No. Tested” value with male rats [3] (0.5 mg/kg iv, 15 minutes) was 2/6; in the data set on male rats [3] (0.5 mg/kg iv, 30 minutes), 2/6; in the data set with male rats [3] (5 mg/kg iv, 30 minutes), 5/5. Besides, the “Comments: respiratory depression” value in the data set with male rats [2] (5 mg/kg iv) is 3/5 respiratory depression. Moreover, the “Positive Responses / Total Possible Responses” value in the data set on male rats [2] (5 mg/kg iv) is recorded as 16/16; with male rats [3] (0.5 mg/kg iv, all time periods), 4/18; with male rats [3] (1 mg/kg iv, all time periods) it was 9/18. The “Comments: dead” value with male rats [3] (5 mg/kg iv) turned out to be 1.
In the case of `CN1C(=O)CNC(=O)[C@H](NC(=O)[C@@H](N)Cc2ccc(O)cc2)CSSC[C@H](C(N)=O)NC(=O)[C@@H]1Cc1ccccc1` [Example 4, L-Tyrosyl-D-cysteinyl-glycyl-N-methyl-L-phenylalanyl-D-cysteinylamide cyclic (2-5) disulfide], the “Comments: respiratory depression” value in the data set with male rats [2] (5 mg/kg iv) is 3/6 respiratory depression. Moreover, the “No. Analgesic / Total No. Tested” value in the data set on male rats [2] (5 mg/kg iv, 15 minutes) is listed as 5/6; in the data set with male rats [2] (5 mg/kg iv, 60 minutes), 3/6; in the data set with male rats [3] (5 mg/kg iv, 30 minutes), 4/6. The “Positive Responses / Total Possible Responses” value in the data set with male rats [2] (5 mg/kg iv) is listed as 12/18.
`NC(=O)[C@@H]1CSSC[C@@H](NC(=O)[C@@H](N)Cc2ccc(O)cc2)C(=O)NCC(=O)N[C@@H](Cc2ccccc2)C(=O)N1` [Example 3, L-Tyrosyl-D-Cysteinyl-glycyl-L-phenylalanyl-L-cysteinyl amide cyclic (2-5) disulfide]: the “No. Analgesic / Total No. Tested” value is 4/6 with male rats [2] (1 mg/kg iv, 15 minutes); 2/6 in the data set with male rats [2] (1 mg/kg iv, 30 minutes); 1/6 in the data set on male rats [2] (1 mg/kg iv, 60 minutes); 6/6 in the data set on male rats [2] (5 mg/kg iv, 15 minutes); 4/6 in the data set with male rats [2] (5 mg/kg iv, 60 minutes); 5/6 in the data set on male rats [3] (5 mg/kg iv, 30 minutes). In addition, the “Comments: respiratory depression” value in the data set on male rats [2] (5 mg/kg iv) is 3/6 moderate to severe respiratory. Also, the “Positive Responses / Total Possible Responses” value with male rats [2] (5 mg/kg iv) is on record as 15/18; in the data set on male rats [3] (1 mg/kg iv, all time periods), 7/18.
On to H-Tyr-D-Ala-Gly-Phe-Met-NH2, for which the analgesia result in data set [4] is on record as “long lasting analgesic”.
As to `NC(=O)[C@H]1CSSC[C@@H](NC(=O)[C@@H](N)Cc2ccc(O)cc2)C(=O)NCC(=O)N[C@@H](Cc2ccccc2)C(=O)N1` [Example 2, L-Tyrosyl-D-cysteinyl-glycyl-L-phenylalanyl-D-cysteinyl amide cyclic (2-5) disulfide], the “No. Analgesic / Total No. Tested” value with male rats [2] (0.5 mg/kg iv, 60 minutes) is 1/6 and 2/6; in the data set on male rats [2] (1 mg/kg iv, 15 minutes) it was 4/5 and 4/6; in the data set with male rats [2] (1 mg/kg iv, 30 minutes) it was 4/4 and 5/6; in the data set on male rats [2] (1 mg/kg iv, 60 minutes), 2/3 and 3/6; in the data set on male rats [2] (5 mg/kg iv, 15 minutes), 5/5; with male rats [2] (5 mg/kg iv, 60 minutes) it was 4/4. Moreover, the “No. Analgesic / Total No. Tested” value was 2/6 with male rats [3] (0.1 mg/kg iv, 15 minutes); 0/6 in the data set with male rats [3] (0.1 mg/kg iv, 30 minutes); 0/6 in the data set with male rats [3] (0.1 mg/kg iv, 60 minutes); 3/6 and 4/6 in the data set on male rats [3] (0.5 mg/kg iv, 15 minutes); 2/6 and 3/6 in the data set with male rats [3] (0.5 mg/kg iv, 30 minutes); 5/5 in the data set on male rats [3] (5 mg/kg iv, 30 minutes). Further, the “No. Analgesic / Total No. Tested” value in the data set with male rats [3] (5 mg/kg s.c., 15 minutes) is reported as 4/6. For the same molecule, the “Comments: respiratory depression” value is 4/4 Respiration very depressed in the data set on male rats [2] (5 mg/kg iv); 1/6 slight respiratory depression in the data set on male rats [3] (0.5 mg/kg iv); 2/3 severe respiratory depression and Slight depression in the data set on male rats [3] (1 mg/kg iv). The “Positive Responses / Total Possible Responses” value was 14/14 in the data set with male rats [2] (5 mg/kg iv); 2/18 in the data set on male rats [3] (0.1 mg/kg iv, all time periods); 6/10 and 9/18 in the data set on male rats [3] (0.5 mg/kg iv, all time periods); 10/12 and 12/18 with male rats [3] (1 mg/kg iv, all time periods); 7/24 with male rats [3] (5 mg/kg s.c.). The “Comments: dead” value with male rats [3] (1 mg/kg iv) is reported as 3/6; in the data set with male rats [3] (5 mg/kg iv), 2/6. The “displacement potency relative to morphine” value with opiate receptor was 100 times that of morphine and 109 times that of morphine.
With H-Tyr-D-Ala-Gly-Phe-D-Leu-OH, the “antinociceptive and behavioral effects” value is “exhibit antinociceptive and behavioral effects” with rats [5] (central administration, rats); “exhibit antinociceptive and behavioral effects” in the data set on mice. In data set [6], the “analgesic activity on peripheral administration” value is “exhibit peripheral analgesic activity”.
On to “H-Tyr-Gly-Gly-Phe-Met-OH [methionine-enkephalin]”, for which the analgesia result with rats [5] is on record as “induce a profound analgesia”.
Consider H-Tyr-D-Ala-Gly-Phe-D-Met-NH2, for which the analgesic activity entry in the data set with rats [5] (centrally administered, rats) is on record as “produced analgesic activity”.
Turning to “H-Tyr-Gly-Gly-Phe-Leu-OH [leucine-enkephalin]”, in the data set on rats [5], the analgesia entry was “induce a profound analgesia”.
